Experimental data: patent publication US4547521A, “16-Methoxy-16-methyl prostaglandin E1 derivatives, a process for preparing them and their use as gastroprotective agents” (Gruppo Lepetit S.p.A., priority 1979, dated 1985)

Tests used:
[1] = system: gastric acid secretion; assay: Inhibition of gastric acid secretion in dogs, histamine at fixed dose of 160 μg/kg/h, oral; format: in vivo, mongrel dogs; conditions: histamine fixed dose 160 μg/kg/h
Method: The compounds of the present invention are also potent inhibitors of the gastric secretion when they are administered to laboratory animals by the oral route. […] The gastric antisecretory properties of these compounds when administered per os were evaluated on the basis of their effectiveness in inhibiting the hyperacidity induced by histamine in dogs. Histamine, which is a potent stimulator of the acidic gastric secretion (see Bertaccini et al., Eur. Journ. Pharmacol., 28, 360, 1974), was administered intravenously by continuous infusion during the experiments.
A group of five mongrel dogs was used in the experiment. […]
To evaluate the gastric antisecretory oral activity of the compounds of the invention, they were administered by gavage into the main stomach at a given dosage, expressed as μg/kg/h, dissolved in 1 ml of physiological solution, 60 minutes before the secreting agent. […]
The compounds of the present invention are potent inhibitors of also gastric hypersecretion also when administered intravenously. […] The pH of the fluid emerging from a cannula in the pylorus is continuously recorded by means of a glass-electrode connected to a direct reading pH-meter and thence to a recorder. […]

[2] = system: gastric hypersecretion induced by histamine; assay: Inhibition of histamine-induced gastric hypersecretion in anesthetized perfused-stomach rats (Ghosh and Schild), intravenous; format: in vivo; conditions: i.v., histamine 1.5 mg/kg/h
Method: The compounds of the present invention are potent inhibitors of also gastric hypersecretion also when administered intravenously. This has been confirmed by evaluating the effects, on gastric hypersecretion induced by histamine, produced by a single intravenous administration to anesthetized rats of the compounds of the present invention. The experiments were carried out essentially according to the methodology described by Ghosh and Schild in Brit. J. Pharm. (1958), 13, 54-61. According to this technique the rat is anesthetized with urethane and its stomach is perfused with a dilute sodium hydroxide solution (N/4000 NaOH at a rate of about 1 ml/min) by way of the oesophagus. The pH of the fluid emerging from a cannula in the pylorus is continuously recorded by means of a glass-electrode connected to a direct reading pH-meter and thence to a recorder. In passing through the stomach, the perfusate collects sufficient buffer to act as an approximately linear buffer system over the relevant range, so that the change in pH becomes a measure of acid secretion.
When the N/4000 NaOH solution is collected after having passed through the unstimulated stomach it gives an initial value of about 6-6.5 (pHunstimulated stomach). A secretory stimulant, histamine in the present case, is then administered intravenously by continuous infusion at a dose of 1.5 mg/kg/h. After a few minutes the pH begins to fall and after about 10 to 20 minutes the secretory effect reaches its maximum and the pH its lowest value (pHhistamine stimulated stomach) which, owing to the continuous infusion of histamine, remains constant. The compounds to be tested are then administered intravenously and the pH is continuously recorded. By considering the highest pH value recorded, which evidences the maximum antisecretory effect reached with the test compound (pHM.A.E.) and using the following equation [formula] the percent inhibition of gastric acid secretion may be easily calculated.

[3] = system: gastric ulcers caused by indomethacin; assay: Cytoprotective activity: inhibition of gastric ulcers caused by indomethacin in rats, oral; format: in vivo; conditions: indomethacin i.p.
Method: More particularly, the cytoprotective activity of the compounds of the present invention was evaluated on the basis of their effectiveness in inhibiting the formation and reducing the severity of gastric ulcers in rats caused by the administration of a high dose of 1-(p-chlorobenzoyl)-5-methoxy-2-methyl-3-indolyl-acetic acid (indomethacin). The cytoprotective activity occurred at oral doses which are by far lower than those which cause inhibition of the gastric acid secretion. In these experiments the rats were deprived of food the day before the beginning of the experiments but water was given ad libitum. The compounds to be tested were administered by the oral route as a suspension in 0.5% aqueous methocel solution (5 animals/dose), while indomethacin was administered intraperitoneally at […] in the same vehicle. Another group of rats (controls) was administered only with the ulcerogenic agent. The cytoprotective properties of the compounds of this invention were then expressed as "percent inhibition of the ulcers with respect to controls", which can be easily calculated by the following ratio: [formula] wherein A.U.D.(controls) is the average ulceration degree of the stomachs of the controls and A.U.D.(treated animals) is the average ulceration degree of the stomachs of the animals which received both indomethacin and the compound to be tested.
The A.U.D.s are calculated according to the method described by Thuillier et al. Chim. Ther., 3, 53, 1968, by examining the stomachs of the laboratory animals for possible ulcerations and assigning a score from 0 to 4 which depends on the number and the severity of the observed ulcerations: 0 indicates absence of any ulceration on the gastric wall; 4 indicates perforating ulcerations. A single ulceration degree (S.U.D.) is then calculated for each single stomach. The sum of the S.U.D.s divided by the number of the animals affords the A.U.D. of the stomachs of each group of animals.

CCCCC(C)(OC)C(O)/C=C/[C@H]1[C@H](O)CC(=O)[C@@H]1CCCCCCC(=O)OC (single isomer, unassigned) [Example 1F, 11α,15-dihydroxy-16-methoxy-16-methyl-9-oxo-prosta-13(E)-ene-1-oic acid methyl ester]
block of gastric acid secretion [1]: about 60% | % Inhibition of the acid gastric secretion ([2]; 2.5 μg/kg): 15% | % Inhibition of the acid gastric secretion ([2]; 10 μg/kg): 63% | % Inhibition of the acid gastric secretion ([2]; 20 μg/kg): 90% | % Inhibition of the acid gastric secretion ([2]; 50 μg/kg): 100% | percent inhibition of the ulcers with respect to controls ([3]; 3 μg/kg (lowest dose tested)): about 43% | ED50 ([3]; Rattus norvegicus, calculated by extrapolation, read-out: ED50 (dose which provokes an inhibition of the ulcers with respect to controls of 50%)): 6 µg/kg | cytoprotective activity (in words) [3]: very active even at very low doses
